Tests used:
animals = assay: Feed supplementation for improving the fertility of animals (titration of the substance into the feed); type: in vivo
From the text: It was found in our studies that phytohormones and beta-glucans appeared to work in a wide range of concentrations for improving the fertility of animals. The optimal concentrations may vary between different species, however, the skilled person will know how to obtain an optimal concentration for a given species, for instance by titration of the desired compound into the animal feed and testing when this would have the optimal effect. The following may serve as guidance in this process. A skilled person will appreciate that the amount of free IAA in the ready to use feed has to be adjusted in order to supply the animal with an effective amount of free IAA. In order to adjust the free IAA concentration in the feed so that a certain daily intake of free IAA is achieved, an estimate has to be made of the feed intake of an animal or animal group. A skilled person is aware of the feed intake of a particular (kind or group of) animal(s). Typically, the feed intake per day is between 0.5 and 10% of the body weight of the animal, with occasional exceptions as high as 20%. Elderly animals tend to eat less and are considered to have a feed intake per day between 0.1 and 5%, typically of 1% of their body mass. […] A particularly good source of such 1,3 and 1,6 beta glucans may be found in preparations of Agaricus blazei murill (ABM) or yeast cell walls. […] This corresponds to approximately 0.1 to 100 mg/kglw/day of 1,3 and 1,6 beta glucans. […] The effect of improving the fertility of animals was also observed when the feed of animals was supplemented with Gibberelin or Gibberellic acid.

humans = details: single doses of 0.1 g/kg body weight; cited from earlier work

1,3 and 1,6 beta glucans
fertility of animals (animals; fed with 1 to 10 mg/kglw/day): Excellent results

C=C1C[C@]23C[C@@]1(O)CC[C@H]2[C@@]12C=C[C@H](O)[C@@](C)(C(=O)O1)[C@H]2[C@@H]3C(=O)O [Gibberellic acid]
fertility of animals (animals; between 0.01 and 0.1 mg/kglw/day, such as 0.04 mg/kglw/day): Optimal results | fertility of animals (animals; range of 0.004 and 0.4 mg/kglw/day): particularly pronounced

O=C(O)Cc1c[nH]c2ccccc12 [free IAA, indole-3-acetic acid]
fertility of animals (animals; feed supplemented with free IAA instead of conjugated IAA): Particularly good results | fertility of animals (animals; feeding with 0.4 mg/kglw/day): very effective | fertility of animals (animals; provided in feed in the range of 0.004 and 40 mg/kglw/day): improved | toxicity of single doses (humans): non-toxic
